Data on nine molecules can be found in publication PMC11874007, “Switching Roles—Exploring Concentration-Dependent Agonistic versus Antagonistic Behavior of Integrin Ligands” (Journal of Medicinal Chemistry, 2025).

For experiment [1], the target named is T1, human α5β1-integrin (Homo sapiens, UniProt P05556+P08648).
T1 construct: purchased R&D 3230-A5-050
Description: ELISA-type solid-phase binding assay: soluble α5β1 competing for immobilized fibronectin. As to the method:
Prior to the biological evaluation of the ligands, their specificity and subtype-selective affinity was analyzed by an ELISA (enzyme-linked immune sorbent assay)-type solid-phase ligand binding assay[59] by measuring the competitive binding of soluble purified integrins in the presence of the respective ligands to plate-immobilized purified ECM proteins, as described in Experimental Section: vitronectin (for αvβ3-directed ligands), fibronectin (for α5β1-directed ligands), or the latency-associated peptide (LAP) of transforming growth factor-β (TGF-β) (for αvβ6-directed ligands). Then, we determined whether Cy5.5 conjugation of ligands led to altered ligand binding affinities and integrin subtype selectivity compared to the unlabeled compounds. In the following, we describe in detail the alterations detected.
(3) 2.0 μg/mL mouse-anti-human CD51/61 (BD Biosciences, Franklin Lakes, New Jersey, USA; #555504). (4) 2.0 μg/mL anti-mouse IgG-POD (Sigma-Aldrich, #A9044-2ML). Integrin αvβ6: (1) 0.4 μg/mL LAP (TGF-β) (R&D, #246-LP-025), (2) 0.5 μg/mL human αvβ6 (R&D, #3817-AV-050), (3) 1:500 dilution mouse-anti-human αv (MAB1978) (Merck Millipore, #MAB1978), (4) 2.0 μg/mL anti-mouse IgG-POD (Sigma-Aldrich, #A9044-2ML). Integrin α5β1: (1) 0.5 μg/mL human fibronectin (Sigma-Aldrich, #F0895-1MG), (2) 2.0 μg/mL human α5β1 (R&D, 3230-A5-050), (3) 1.0 μg/mL mouse-anti-human CD49e (BD Biosciences, #555651), (4) 2.0 μg/mL anti-mouse IgG-POD (Sigma-Aldrich, #A9044-2 ML). For Western blot analysis, the following antibodies were used: (p-)p44/42^(erk-1/2) (1) 1:300 dilution of rabbit-anti-human p44/42^(erk-1/2) antibody (Cell Signaling Technology, Frankfurt, Germany, #9102) in 3% (w/v) bovine serum albumin (BSA)/TBS-T, (2) 1:5,000 dilution goat-anti-rabbit horseradish-conjugated secondary antibody in 1% (w/v) BSA/TBS-T. Phospho-p44/42^(erk-1/2): (1) 1:200 dilution rabbit-anti-human p44/42^(erk-1/2) (Thr202/Tyr204) antibody (Cell Signaling Technology, #9101) in 3% (w/v) BSA/TBS-T, (2) 1:5,000 dilution goat-anti-rabbit horseradish-conjugated secondary antibody in 1% (w/v) BSA/TBS-T. FAK: (1) 1:300 dilution mouse-anti-human FAK antibody (Cell Signaling Technology, #9102) in 3% (w/v) BSA/TBS-T, (2) 1:5,000 dilution goat-anti-mouse horseradish-conjugated secondary antibody in 1% (w/v) BSA/TBS-T. Phospho-FAK: (1) 1:300 dilution mouse-anti-human p-FAK antibody (Cell Signaling Technology) in 3% (w/v) BSA/TBS-T, (2) 1:5,000 dilution goat-antimouse horseradish-conjugated secondary antibody in 1% (w/v) BSA/TBS-T. Differences in blotting efficiency and protein loading were normalized by using a primary antibody against glyceraldehyde-3-phosphate dehydrogenase (GAPDH, 1:10,000 dilution in 1% (w/v) BSA/TBS-T, at RT for 45 min (Millipore, Schwalbach, Germany) and a secondary horseradish-conjugated goat-anti-mouse antibody (1:10,000 dilution in 1% (w/v) BSA/TBS-T, 40 min at RT).
The integrin binding assay was done to assess the specificity and subtype-selective affinity of L1–L5 and their respective Cy5.5-conjugated ligands by using isolated and purified integrins in cell-free ligand binding assays, as previously published.[59]Table 2 summarizes the used ECM ligands, integrins, and antibodies. In brief, flat-bottom 96-well plates were coated overnight at 4 °C with the natural ECM integrin ligands, vitronectin (for αvβ3-directed ligands), fibronectin (for α5β1-directed ligands), or LAP of TGF-β1 (for αvβ6-directed ligands) (100 μL/well in buffer containing 15 mM Na2CO3, 35 mM NaHCO3, pH 9.6). Subsequently, each well was washed in PBS, 0.01% (v/v) Tween 20, 137 mM NaCl, 2.7 mM KCl, 10 mM Na2HPO4, 2 mM KH2PO4, pH 7.4 (PBS-T), and blocked for unspecific binding events for 1 h at RT in 20 mM Tris–HCl, pH 7.5, 150 mM NaCl, 1 mM CaCl2, 1 mM MgCl2, 1 mM MnCl2, and 1% (w/v) BSA. Meanwhile, dilution series of the different integrin ligands and the internal standards were prepared, ranging from 20 μM to 256 pM in 1:5 dilution steps. […]
A general note: An ELISA detects its analyte on a solid surface through an enzyme-linked reagent.

Experiment [2] deals with αvβ6- OV-MZ-6 cells. Description: Cellular uptake of Cy5.5-labeled ligands, OV-MZ-6 control cells. The experiment is classed as cell-based. Particulars: 1 μM Cy5.5-labeled ligand. Here is the method: (§1) For intracellular drug delivery, integrin ligands designed as drug-conjugated vehicles have to be easily and selectively internalized by tumor cells (over)expressing the respective targeted integrin subtype. […] It should be noted here that HN, OV-MZ-6, and RKO cells also express low αvβ3 expression levels.
(§2) Microchamber cell culture slides were coated with fibronectin (2 μg/mL), followed by cell seeding at a density of 50,000 cells/well. After 24 h of cultivation, cells were treated with integrin ligands L1-Cy5.5 to L5-Cy5.5 (1 μM in 0.01% (w/v) CaCl2 and 0.1% (w/v) BSA in PBS; 250 μL/well) for 3, 30, 60, or 300 min at 37 °C. The cells were washed in PBS/0.01% (w/v) CaCl2 (6 × 800 μL) and the fluorescence signal intensity recorded using the LSM 700 microscope (Zeiss, Jena, Germany). CellMask Green Plasma Membrane Stain was used to stain the cell membrane; nuclei were stained with Hoechst 33342.

In experiment [3] the target is human α5β1-integrin (human) (UniProt P08648). Description: ELISA; competitive ELISA-type solid-phase assay: human fibronectin (0.5 μg/mL) coated on the plate overnight at 4 °C, soluble human α5β1 (2.0 μg/mL) added with a dilution series of the ligand (20 μM to 256 pM), 1 h at RT; blocked in 20 mM Tris-HCl pH 7.5, 150 mM NaCl, 1 mM CaCl2, 1 mM MgCl2, 1 mM MnCl2, 1% BSA; bound integrin detected with anti-CD49e; IC50 referenced to cilengitide.

The test system of experiment [4] is HN cells (αvβ6+). Description: Time-dependent cellular uptake of Cy5.5-labeled ligands, HN cells. Conditions: 1 μM, within 3 min. The experiment is classed as cell-based.
Source text: as §1
(§3) Figure 7 Cellular uptake of Cy5.5-labeled integrin ligands. […] Nuclei were costained with Hoechst 33342 (blue signal) and cell membranes with CellMask Green (green signal). Merge of stains (yellow signal) indicated colocalization of ligands at the cell membrane. Scale bar: 50 μm.
as §2

Experiment [5] concerns M21 (αvβ3+), HN (αvβ6+), RKO (α5β1+) cells. Description: Time-dependent cellular uptake of Cy5.5-labeled ligands in cells overexpressing the targeted integrin. The experiment is classed as cell-based. Particulars: state within 30 min, Cy5.5-conjugated ligands, target integrin-expressing cells.
Source text: as §1, §3, §2

In experiment [6] the target is T2, human αvβ3-integrin (Homo sapiens, UniProt P05106+P06756).
T2 construct: purchased R&D 3050-AV-050
Description: ELISA-type solid-phase binding assay: soluble αvβ3 competing for immobilized vitronectin. Particulars: competitive ELISA-type assay, referenced to internal standard cilengitide (L2).

Experiment [7] concerns the target T3, human αvβ6-integrin (Homo sapiens, UniProt P06756+P18564).
T3 construct: purchased R&D 3817-AV-050
Description: ELISA-type solid-phase binding assay: soluble αvβ6 competing for immobilized LAP (TGF-β). Conditions: competitive ELISA-type assay, referenced to internal standard RTDLDSLRT

For experiment [8], the target named is T4, human αvβ6-integrin (human, UniProt P06756 31-1048; P18564 22-709).
T4 construct: integrin alpha-V, human, chain of the soluble purified αvβ6 heterodimer; integrin beta-6, human, chain of the soluble purified αvβ6 heterodimer; also called integrin αvβ6; source: bought: R&D, #3817-AV-050
Description: ELISA; competitive ELISA-type solid-phase assay: LAP of TGF-β1 (0.4 μg/mL) coated on the plate overnight at 4 °C, soluble human αvβ6 (0.5 μg/mL) added with a dilution series of the ligand (20 μM to 256 pM), 1 h at RT; blocked in 20 mM Tris-HCl pH 7.5, 150 mM NaCl, 1 mM CaCl2, 1 mM MgCl2, 1 mM MnCl2, 1% BSA; bound integrin detected with anti-αv; IC50 referenced to …. Particulars: both partners purified.

Experiment [9] has as its target human α5β1-integrin (human) (UniProt P08648).
[10] abbreviates: competitive ELISA-type assay, referenced to internal standard cilengitide (L2).

Where two headings read alike, the source gives them in different places. Non-standard residues stand in square brackets, D forms with d. Chg = N[C@H](C(=O)O)C1CCCCC1; NMeV = CN[C@H](C(=O)O)C(C)C A value given as a limit tells only on which side of the number the result lay.

By IC50 is commonly meant the concentration at which inhibition is half-maximal. Low values mean higher potency, high ones lower potency.

In experiment [1], `CN1/C(=C/C=C/C=C/C2=[N+](CCCCCC(=O)NCCCCCC(=O)N[C@@H](CCCCNC(=O)[C@@H]3CCC(=O)N[C@@H](CCCNC(=N)N)C(=O)NCC(=O)N[C@@H](CC(=O)O)C(=O)N[C@@H](C4CCCCC4)C(=O)N3)C(N)=O)c3ccc4ccccc4c3C2(C)C)C(C)(C)c2c1ccc1ccccc21` [L4-Cy5.5] gave an IC50 above 1000 nM. Also, in [2], the “Binding / intracellular uptake in control cells” value (“Binding / intracellular uptake” for short) was “did not bind”.
Regarding “L3-Cy5.5, the Cy5.5 conjugate of c(FRGDLAFp(NMe)K) (L3) (peptide)”, the IC50 in experiment [3] is above 1000 nM.
Same read-out and setting: the figure for “L4-Cy5.5, the Cy5.5 conjugate of c(RGD-Chg-isoE)-CONH2 (L4) (peptide)” is above 1000 nM.
Take `CC(C)C[C@@H]1NC(=O)[C@H](CC(=O)O)NC(=O)CNC(=O)[C@H](CCCNC(=N)N)NC(=O)[C@H](Cc2ccccc2)NC(=O)[C@H](CCCCNC(=O)CCCCCNC(=O)CCCCC[N+]2=C(/C=C/C=C/C=C3/N(C)c4ccc5ccccc5c4C3(C)C)C(C)(C)c3c2ccc2ccccc32)N(C)C(=O)[C@H]2CCCN2C(=O)[C@H](Cc2ccccc2)NC(=O)[C@H](C)NC1=O` [L3-Cy5.5]: in experiment [1] (setting [10]), the half-inhibitory concentration (IC50) is above 1000 nM. Moreover, the “Localization of Cy5.5-labeled ligand” value in experiment [4] is “already intracellularly visible”. For the same molecule, the “Binding / intracellular uptake” value in [2] was “did not bind”.
In the case of c(RGD-Chg-isoE)-CONH2 [L4], in experiment [5], the “Endocytosis of Cy5.5-conjugated ligand” value was “already completed”.
As to `Cc1cc(OCCCNC(=O)CCCCCNC(=O)CCCCC[N+]2=C(/C=C/C=C/C=C3/N(C)c4ccc5ccccc5c4C3(C)C)C(C)(C)c3c2ccc2ccccc32)cc(C)c1C(=O)N[C@@H](CNC(=O)CNC(=O)c1cccc(NC(=N)N)c1)C(=O)O` [L5-Cy5.5], the IC50 in [6] was above 1000 nM; in [1] (setting [10]), 4.69 ± 1 nM; in experiment [7], 154 ± 136 nM.
On to `COc1ccnc(NCCCOc2ccc(C[C@@H](CC(=O)O)NC(=O)c3ccc(OCCCNC(=O)CCCCCNC(=O)CCCCC[N+]4=C(/C=C/C=C/C=C5/N(C)c6ccc7ccccc7c6C5(C)C)C(C)(C)c5c4ccc4ccccc54)cc3)cc2)c1` [L1-Cy5.5], for which the concentration for half-maximal inhibition (IC50) in experiment [6] was 1.02 ± 0.02 nM; in experiment [1] (setting [10]), above 1000 nM; in [7], above 1000 nM. Moreover, the “Binding / intracellular uptake” value in experiment [2] was “only minor intracellular traces”.

B1: L4-Cy5.5, the Cy5.5 conjugate of c(RGD-Chg-isoE)-CONH2 (L4) (peptide)
chain: cyclo(RGD[Chg][isoE])
modifications: not fully specified (C-terminus); printed as c(RGD-Chg-isoE)-CONH2; also: Cy5.5 attached via Ahx linker, site not given here
Consider B1, for which the half-inhibitory concentration (IC50) in [8] worked out at 7.63 ± 0.83 nM.
Regarding cyclo(RGD[dF][NMeV]) [cilengitide, c(RGDf(NMe)V) (L2)], the p-FAK level by Western blot in OV-MZ-6 cells (low αvβ3, α5β1+) with 1 nM cilengitide, 5 to 60 min in experiment [9] worked out at 2.2 fold.
